Data: PubChem BioAssay (NCI)
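Exposure lasted 48 hours, with cells grown in 96-well plates and compounds tested at five concentrations. TGI is the concentration that stops growth completely.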

Experiments:
Test in all cases: NCI tumour cell line growth inhibition, 48 h
[1] = tested on: 786-0 renal
[2] = tested on: A498 renal
[3] = tested on: A549 NSCLC
[4] = tested on: ACHN renal
[5] = tested on: BT-549 breast
[6] = tested on: CAKI-1 renal
[7] = tested on: CCRF-CEM leukemia
[8] = tested on: COLO 205 colon
[9] = tested on: DU-145 prostate
[10] = tested on: EKVX NSCLC
[11] = tested on: HCC-2998 colon
[12] = tested on: HCT-116 colon
[13] = tested on: HCT-15 colon
[14] = tested on: HOP-62 NSCLC
[15] = tested on: HOP-92 NSCLC
[16] = tested on: HS 578T breast
[17] = tested on: HT29 colon
[18] = tested on: IGROV1 ovarian
[19] = tested on: K-562 leukemia
[20] = tested on: KM12 colon
[21] = tested on: M14 melanoma
[22] = tested on: MALME-3M melanoma
[23] = tested on: MCF7 breast
[24] = tested on: MDA-MB-231 breast
[25] = tested on: MDA-MB-435
[26] = tested on: MDA-N
[27] = tested on: MOLT-4 leukemia
[28] = tested on: NCI-H23 lung
[29] = tested on: NCI-H460 lung
[30] = tested on: NCI-H522 lung
[31] = tested on: NCI/ADR-RES ovarian
[32] = tested on: OVCAR-3 ovarian
[33] = tested on: OVCAR-4 ovarian
[34] = tested on: OVCAR-5 ovarian
[35] = tested on: OVCAR-8 ovarian
[36] = tested on: PC-3 prostate
[37] = tested on: RPMI-8226 leukemia
[38] = tested on: RXF 393 renal
[39] = tested on: SF-268 CNS
[40] = tested on: SF-295 CNS
[41] = tested on: SK-MEL-2 melanoma
[42] = tested on: SK-MEL-28 melanoma
[43] = tested on: SK-MEL-5 melanoma
[44] = tested on: SK-OV-3 ovarian
[45] = tested on: SNB-19 CNS
[46] = tested on: SNB-75 CNS
[47] = tested on: SR leukemia
[48] = tested on: SW-620 colon
[49] = tested on: T-47D breast
[50] = tested on: TK-10 renal
[51] = tested on: U251 CNS
[52] = tested on: UACC-257 melanoma
[53] = tested on: UACC-62 melanoma
[54] = tested on: UO-31 renal
[55] = tested on: LOX IMVI melanoma
[56] = tested on: NCI-H226 lung
[57] = tested on: SN12C renal

With `COC(=O)C1CCC(=S)N1C(=O)OCc1ccccc1` (stereo not given) the TGI [1] was over 100 µM, the TGI [2] was over 100 µM and the TGI [3] was over 100 µM. It also gave a TGI [4] of over 100 µM, a TGI [5] of over 100 µM and a TGI [6] of over 100 µM. It also gave a TGI [7] of over 100 µM, a TGI [8] of over 100 µM and a TGI [9] of over 100 µM. The TGI [10] was over 100 µM, the TGI [11] was over 100 µM and the TGI [12] was over 100 µM. For the same molecule, the TGI [13] was over 100 µM, the TGI [14] was over 100 µM and the TGI [15] was over 100 µM. For the same molecule, the TGI [16] was over 100 µM, the TGI [17] was over 100 µM and the TGI [18] was over 100 µM. The TGI [19] was over 100 µM, the TGI [20] was over 100 µM and the TGI [21] was over 100 µM. For the same molecule, the TGI [22] was over 100 µM, the TGI [23] was over 100 µM and the TGI [24] was over 100 µM. The TGI [25] was over 100 µM, the TGI [26] was over 100 µM and the TGI [27] was over 100 µM. It also gave a TGI [28] of over 100 µM, a TGI [29] of over 100 µM and a TGI [30] of over 100 µM. For the same molecule, the TGI [31] was over 100 µM, the TGI [32] was over 100 µM and the TGI [33] was over 100 µM. The TGI [34] was over 100 µM, the TGI [35] was over 100 µM and the TGI [36] was over 100 µM. For the same molecule, the TGI [37] was over 100 µM, the TGI [38] was over 100 µM and the TGI [39] was over 100 µM. For the same molecule, the TGI [40] was over 100 µM, the TGI [41] was over 100 µM and the TGI [42] was over 100 µM. For the same molecule, the TGI [43] was over 100 µM, the TGI [44] was over 100 µM and the TGI [45] was over 100 µM. For the same molecule, the TGI [46] was over 100 µM, the TGI [47] was over 100 µM and the TGI [48] was over 100 µM. For the same molecule, the TGI [49] was over 100 µM, the TGI [50] was over 100 µM and the TGI [51] was over 100 µM. The TGI [52] was over 100 µM, the TGI [53] was over 100 µM and the TGI [54] was over 100 µM.

Molecule `COc1cccc(C23CCCC(C2)NCC3Br)c1OC` (stereo not given) has a TGI [1] of over 100 µM, a TGI [2] of 31.3 µM and a TGI [3] of over 100 µM. The TGI [4] was 73.8 µM, the TGI [5] was 92.3 µM and the TGI [6] was over 100 µM. The TGI [7] was 99.3 µM, the TGI [8] was 27.1 µM and the TGI [9] was over 100 µM. It also gave a TGI [10] of over 100 µM, a TGI [12] of over 100 µM and a TGI [13] of over 100 µM. For the same molecule, the TGI [14] was over 100 µM, the TGI [15] was over 100 µM and the TGI [16] was 78.5 µM. The TGI [17] was over 100 µM, the TGI [18] was over 100 µM and the TGI [19] was over 100 µM. It also gave a TGI [20] of over 100 µM, a TGI [55] of over 100 µM and a TGI [21] of over 100 µM. The TGI [22] was over 100 µM, the TGI [23] was 57.3 µM and the TGI [24] was over 100 µM. For the same molecule, the TGI [25] was over 100 µM, the TGI [26] was over 100 µM and the TGI [27] was over 100 µM. It also gave a TGI [56] of 5.37 µM, a TGI [28] of over 100 µM and a TGI [29] of over 100 µM. It also gave a TGI [30] of 53.3 µM, a TGI [31] of over 100 µM and a TGI [32] of over 100 µM. The TGI [33] was over 100 µM, the TGI [34] was over 100 µM and the TGI [35] was over 100 µM. The TGI [36] was over 100 µM, the TGI [37] was 45.7 µM and the TGI [38] was over 100 µM. For the same molecule, the TGI [39] was over 100 µM, the TGI [40] was over 100 µM and the TGI [41] was over 100 µM. The TGI [42] was over 100 µM, the TGI [43] was 13.1 µM and the TGI [44] was over 100 µM. For the same molecule, the TGI [57] was over 100 µM, the TGI [45] was over 100 µM and the TGI [46] was over 100 µM. For the same molecule, the TGI [47] was 83.1 µM, the TGI [48] was over 100 µM and the TGI [49] was over 100 µM. For the same molecule, the TGI [50] was over 100 µM, the TGI [51] was over 100 µM and the TGI [52] was over 100 µM. For the same molecule, the TGI [53] was 58.1 µM and the TGI [54] was over 100 µM.
